Source: patent US20240082228A1, “SARS-COV-2 THERAPEUTICS” (priority 2021, published 2024)
Values joined by “and” are separate entries in the source; they are usually repeats but may differ in a detail not shown here. Identical values can stand only once. Like-named read-outs stand apart in the source and are kept apart here.

Tests used:
[1] = tested on: SARS-CoV-2; experiment: microbe, parasite or virus in culture; type: cell-based; details: for % Infection (1 uM) / % Infection (5 uM): single replicate of triplicate; for Normalized Infection (1 uM) / log2FC Infection (1 uM) / Normalized Infection (5 uM) / log2FC Infection (5 uM) / activity at 1 µM / activity at 5 µM: single replicate, relative to negative control DMSO; for HIT: overall, 1 or 5 uM; for activity at 1 µM: Severe acute respiratory syndrome coronavirus 2, 1 uM, read-out: Normalized Infection (1 uM); for activity at 5 µM: Severe acute respiratory syndrome coronavirus 2, 5 uM, read-out: Normalized Infection (5 uM)
[2] = for Average Cell Number (1 uM) / Cell Number (1 uM) / Normalized Cell Number (1 uM): compound at 1 uM; for Average Cell Number (1 uM) / Average Cell Number (5 uM): average of normalized cell number, n=3, relative to DMSO; for Cell Number (1 uM) / Normalized Cell Number (1 uM) / Cell Number (5 uM) / Normalized Cell Number (5 uM): single replicate; for Cell Number (1 uM) / Cell Number (5 uM): raw cell count; for Normalized Cell Number (1 uM) / Normalized Cell Number (5 uM): relative to negative control DMSO; for Average Cell Number (5 uM) / Cell Number (5 uM) / Normalized Cell Number (5 uM): compound at 5 uM
[3] = 1 uM, average log2FC infection (n=3) relative to DMSO
[4] = 5 uM, average log2FC infection (n=3) relative to DMSO

Compound | HIT (2 Std, 1 uM) ([1]; 1 uM) | HIT (2 Stdv, 5 uM) ([1]; 5 uM) | HIT [1] | Toxic (1 uM) [2] | Average Cell Number (1 uM) [2] | Cell Number (1 uM) [2] | Normalized Cell Number (1 uM) [2] | Average Cell Number (5 uM) [2] | Cell Number (5 uM) [2] | Normalized Cell Number (5 uM) [2] | Average Infection (1 uM) [1, 3] | Average Infection (5 uM) [1, 4] | activity at 1 µM [1] [%] | activity at 5 µM [1] [%] | Toxic (5 uM) [2] | also measured
lonafarnib | HIT | HIT | Yes | 0 (non-toxic (Normalized Cell number>0.65) | 0.6561 | 3801 and 4072 and 3662 | 0.6486 and 0.6949 and 0.6249 | 0.6416 | 3696 and 3879 and 3831 | 0.6546 and 0.6465 |  |  |  |  |  | Average Infection (1 uM) [1]: −0.6667; Average Infection (5 uM) [1]: −1.3; % Infection (1 uM) ([1]; 1 uM): 17.44% and 15.37%; Normalized Infection (1 uM) ([1]; 1 uM): 0.6641 and 0.5853; log2FC Infection (1 uM) ([1]; 1 uM): −0.5906 and −0.7727; % Infection (5 uM) ([1]; 5 uM): 6.304% and 5.672% and 6.839%; Normalized Infection (5 uM) ([1]; 5 uM): 0.4094 and 0.3683 and 0.4442; log2FC Infection (5 uM) ([1]; 5 uM): −1.288 and −1.441 and −1.171
CC1(N)CCN(c2cccnc2NC(=O)c2nc(-c3ncccc3C(F)(F)F)cnc2N)CC1 [LXS-196, lxs196] | HIT | HIT | Yes | 0 (non-toxic (Normalized Cell number>0.65) | 0.9125 | 5737 and 5507 and 4798 | 0.979 and 0.9398 and 0.8188 | 0.5379 |  |  | −2.123 | −6.497 | 31 |  |  | 
CC(C)(C)c1cc(C(C)(C)C)c(NC(=O)c2c[nH]c3ccccc3c2=O)cc1O [Ivacaftor, ivacaftor] | HIT | HIT | Yes |  | 0.6354 | 3730 and 3662 and 3779 | 0.6365 and 0.6249 and 0.6449 | 0.735 | 4520 and 4563 and 3984 | 0.7627 and 0.77 and 0.6723 |  |  | 59.8 | 60.9 | 0 (non-toxic (Normalized Cell number>0.65) | Average Infection (1 uM) [1]: −0.9235; Average Infection (5 uM) [1]: −0.9409
COc1nc2ccc(Br)cc2cc1[C@@H](c1ccccc1)[C@@](O)(CCN(C)C)c1cccc2ccccc12 [TMC207, bedaquiline] | HIT | HIT | Yes |  | 0.6048 | 3465 and 3507 and 3661 | 0.5913 and 0.5985 and 0.6247 | 0.8191 | 5108 and 4528 and 4927 | 0.8619 and 0.7641 and 0.8314 | −0.3556 | −0.559 | 72.7 | 65.9 | 0 (non-toxic (Normalized Cell number>0.65) | 
CC1(C)S[C@@H]2[C@H](NC(=O)[C@H](N)c3ccccc3)C(=O)N2[C@H]1C(=O)O [Ampicillin, ampicillin] | HIT |  | Yes | 0 (non-toxic (Normalized Cell number>0.65) | 0.694 | 3959 and 4296 and 3945 | 0.6756 and 0.7331 and 0.6732 | 0.9658 | 5481 and 5912 and 5777 | 0.9249 and 0.9976 and 0.9748 | −0.9564 | −0.0334 | 48.2 | 102 | 0 (non-toxic (Normalized Cell number>0.65) | 
O=C(O)Cn1nnc(-c2cc(N3CCC(Oc4cc(F)ccc4Br)CC3)no2)n1 [MK-8245, mk-8245] | HIT |  | Yes | 0 (non-toxic (Normalized Cell number>0.65) | 0.7263 |  |  | 0.9401 | 5812 and 4892 and 6009 | 0.9807 and 0.8255 and 1.014 | 0.7764 | −0.05739 |  |  | 0 (non-toxic (Normalized Cell number>0.65) | 
osanetant | HIT | HIT | Yes | 0 (non-toxic (Normalized Cell number>0.65) | 0.6882 | 4045 and 3932 and 4122 | 0.6903 and 0.671 and 0.7034 | 0.7783 | 4466 and 4973 and 4398 | 0.7536 and 0.8392 and 0.7421 | −0.8388 | −3.987 |  |  | 0 (non-toxic (Normalized Cell number>0.65) | % Infection (1 uM) ([1]; 1 uM): 13.75% and 14.37% and 16.0359%; Normalized Infection (1 uM) ([1]; 1 uM): 0.5233 and 0.547 and 0.6105; log2FC Infection (1 uM) ([1]; 1 uM): −0.9343 and −0.8703 and −0.7119; % Infection (5 uM) ([1]; 5 uM): 0.9628% and 1.307% and 0.7276%; Normalized Infection (5 uM) ([1]; 5 uM): 0.06253 and 0.08489 and 0.04725; log2FC Infection (5 uM) ([1]; 5 uM): −3.999 and −3.558 and −4.403
CCCCC[C@H](O)/C=C/[C@@H]1[C@@H](C/C=C\CCCC(=O)O)[C@@H](O)C[C@H]1O [Prostagladin F2a, dinoprost] | HIT |  | Yes |  | 0.8973 |  | 0.8613 and 0.9247 and 0.906 | 0.9858 |  | 0.988 and 0.9765 and 0.9929 | −0.6806 | −0.2282 | 58.9 | 83.1 |  | 
CS(=O)(=O)N1CCN(Cc2cc3nc(-c4cccc5[nH]ncc45)nc(N4CCOCC4)c3s2)CC1 [GDC-0941, pictilisib] | HIT | HIT | Yes | 0 (non-toxic (Normalized Cell number>0.65) | 0.7899 | 4447 and 4698 and 4741 | 0.7589 and 0.8017 and 0.809 | 0.8826 | 5415 and 4385 and 5891 | 0.9137 and 0.7399 and 0.9941 | −2.374 | −2.82 | 14.6 |  | 0 (non-toxic (Normalized Cell number>0.65) | 
CC(C)N1CCN(Cc2cnc(-c3cc(-c4cccc5[nH]ccc45)cc4[nH]ncc34)o2)CC1 [GSK2269557, nemiralisib] | HIT | HIT | Yes | 0 (non-toxic (Normalized Cell number>0.65) | 0.8919 | 4831 and 5665 and 5184 | 0.8244 and 0.9667 and 0.8846 | 0.7914 | 4568 and 3831 and 5671 | 0.7708 and 0.6465 and 0.9569 |  |  |  |  | 0 (non-toxic (Normalized Cell number>0.65) | Average Infection (1 uM) [1]: −0.7144; Average Infection (5 uM) [1]: −3.347; % Infection (1 uM) ([1]; 1 uM): 17.26% and 15.32% and 15.51%; Normalized Infection (1 uM) ([1]; 1 uM): 0.6572 and 0.5833 and 0.5904; log2FC Infection (1 uM) ([1]; 1 uM): −0.6055 and −0.7776 and −0.7601; % Infection (5 uM) ([1]; 5 uM): 1.292% and 0.4698% and 5.713%; Normalized Infection (5 uM) ([1]; 5 uM): 0.08388 and 0.03051 and 0.371; log2FC Infection (5 uM) ([1]; 5 uM): −3.575 and −5.034 and −1.43
C#C[C@]1(O)CC[C@H]2[C@@H]3CCC4=CCCC[C@@H]4[C@H]3C(=C)C[C@@]21CC [Desogestrel, desogestrel] | HIT |  | Yes | 0 (non-toxic (Normalized Cell number>0.65) | 0.8768 | 5131 and 5212 and 5072 | 0.8756 and 0.8894 and 0.8655 | 0.9255 | 5708 and 5824 and 4922 | 0.9632 and 0.9828 and 0.8305 | −0.4489 | −0.1002 | 80.9 | 87 | 0 (non-toxic (Normalized Cell number>0.65) | 
c1cc(OCCN2CCCCC2)cc(-c2n[nH]c3ccc(-c4nc[nH]n4)cc23)c1 [CC-401, cc-401] |  | HIT | Yes | 0 (non-toxic (Normalized Cell number>0.65) | 0.8485 | 4691 and 5161 and 5065 | 0.8005 and 0.8807 and 0.8643 | 0.8935 | 4993 and 5513 and 5380 | 0.8425 and 0.9303 and 0.9078 | −0.3224 | −0.828 | 86.2 | 58.4 | 0 (non-toxic (Normalized Cell number>0.65) | 
CC1(C)Cc2c(-c3ccccc3)c(-c3ccc(Cl)cc3)c(CC(=O)O)n2C1 [Licofelone, licofelone] | HIT | HIT | Yes |  | 0.6254 | 3716 and 3591 and 3687 | 0.6341 and 0.6128 and 0.6292 | 0.8061 | 4830 and 4798 and 4704 | 0.815 and 0.8096 and 0.7938 | −0.7411 | −0.555 | 59.1 |  | 0 (non-toxic (Normalized Cell number>0.65) | 
